Laboratory results as given in paper PMC2742306 (Molecular cell, 2009).
Marks after values point to notes of the source that are not given here. Residues, ends and D or L forms follow the SMILES beside them. No end group written: not given here.

What was measured:
[1] = molecular target: T1, wild-type DegS (Escherichia coli, UniProt P0AEE3); assay: OMP-peptide activation of RseA cleavage by wild-type DegS; format: biochemical, E. coli; conditions: for Hill Constant (peptide activation): 200 μM RseA
[2] = molecular target: T2, D320A DegS (Escherichia coli, UniProt P0AEE3, D320A); assay: OMP-peptide activation of RseA cleavage by D320A DegS; format: biochemical, E. coli; conditions: D320A; for Hill Constant (peptide activation): 200 μM RseA
[3] = molecular target: T3, K243D mutant of DegS (Escherichia coli, UniProt P0AEE3, K243D); assay: OMP-peptide activation of RseA cleavage by K243D DegS; format: biochemical, E. coli; conditions: K243D
[4] = molecular target: T1, wild-type DegS; format: biochemical, E. coli; conditions: for L0, equilibrium constant T/R of unliganded enzyme / KTP/KRP / kr, rate constant for cleavage of RseA by substrate-bound R-state subunits: MWC global fit; for L0, equilibrium constant T/R of unliganded enzyme: enzyme parameter, peptide-independent; for KTP/KRP: peptide preference for relaxed state; for kr, rate constant for cleavage of RseA by substrate-bound R-state subunits: same value for all enzymes and peptides
[5] = molecular target: T3, K243D mutant of DegS; assay: Global fit to MWC allosteric model, K243D DegS; format: biochemical, E. coli; conditions: K243D, MWC global fit
[6] = molecular target: T2, D320A DegS; assay: Global fit to MWC allosteric model, D320A DegS; format: biochemical, E. coli; conditions: D320A, MWC global fit; for KRS, dissociation constant of RseA substrate for R-state subunit / KTS, dissociation constant of RseA substrate for T-state subunit: not peptide, binding; for L0, equilibrium constant T/R of unliganded enzyme: enzyme parameter, peptide-independent; for KTP/KRP: peptide preference for relaxed state; for kr, rate constant for cleavage of RseA by substrate-bound R-state subunits: same value for all enzymes and peptides
[7] = molecular target: T1, wild-type DegS; format: biochemical, E. coli; conditions: wild-type DegS 0.9 μM trimer; 20 μM rhodamine-FP; saturating peptide
[8] = molecular target: DegS K243D (residues 27–355, N-terminal His6 tag) (E. coli) (UniProt P0AEE3); assay: enzyme kinetics
[9] = molecular target: T4, DegS K243D (residues 27–355, N-terminal His6 tag) (E. coli, UniProt P0AEE3 27-355, K243D); assay: enzyme kinetics
T4 sequence (looked up): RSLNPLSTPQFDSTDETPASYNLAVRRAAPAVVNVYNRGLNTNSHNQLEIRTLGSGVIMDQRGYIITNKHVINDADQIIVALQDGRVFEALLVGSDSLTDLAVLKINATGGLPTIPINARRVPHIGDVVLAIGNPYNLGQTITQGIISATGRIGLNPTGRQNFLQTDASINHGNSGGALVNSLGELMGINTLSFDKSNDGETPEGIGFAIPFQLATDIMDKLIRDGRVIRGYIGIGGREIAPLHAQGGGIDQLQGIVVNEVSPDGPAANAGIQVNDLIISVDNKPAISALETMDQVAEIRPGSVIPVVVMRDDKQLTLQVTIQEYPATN

[10] = molecular target: T5, DegS D320A (residues 27–355, N-terminal His6 tag) (E. coli, UniProt P0AEE3 27-355, D320A); assay: enzyme kinetics
T5 sequence (looked up): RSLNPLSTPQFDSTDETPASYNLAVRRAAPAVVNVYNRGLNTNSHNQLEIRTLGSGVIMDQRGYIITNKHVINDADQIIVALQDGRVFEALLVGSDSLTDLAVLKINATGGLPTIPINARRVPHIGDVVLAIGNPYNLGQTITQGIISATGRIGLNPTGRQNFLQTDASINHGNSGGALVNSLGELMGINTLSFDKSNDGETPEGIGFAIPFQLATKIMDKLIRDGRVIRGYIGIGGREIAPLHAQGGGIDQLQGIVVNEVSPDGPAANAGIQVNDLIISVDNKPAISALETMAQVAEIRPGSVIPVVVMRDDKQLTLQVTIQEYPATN

[11] = saturating peptide, single sub-KM RseA concentration

T1 sequence (P0AEE3 27-355): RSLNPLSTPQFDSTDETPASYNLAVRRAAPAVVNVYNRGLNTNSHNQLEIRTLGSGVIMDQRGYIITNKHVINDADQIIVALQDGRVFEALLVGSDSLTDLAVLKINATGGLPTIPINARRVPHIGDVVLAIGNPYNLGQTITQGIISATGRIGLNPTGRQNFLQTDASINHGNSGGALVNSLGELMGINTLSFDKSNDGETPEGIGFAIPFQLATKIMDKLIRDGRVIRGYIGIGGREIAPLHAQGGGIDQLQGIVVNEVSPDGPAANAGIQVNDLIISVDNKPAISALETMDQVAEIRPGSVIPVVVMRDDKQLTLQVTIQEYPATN

## NC(=O)CC[C@H](NC(=O)[C@@H](N)Cc1ccc(O)cc1)C(=O)N[C@@H](Cc1ccccc1)C(=O)O [YQF] (H-Tyr-Gln-Phe-OH)
[1]; wild-type DegS
  displacement in concentration between YYF and YQF activation curves: ~10 fold
  Hill Constant (peptide activation): 1.6 ± 0.1

## DNRDGNVYQF [DNRDGNVYQF]
[2]
  Hill Constant (peptide activation): 1.2 ± 0.1
[2]; [11]
  RseA cleavage relative to wild-type DegS: about three-fold faster
[1]; wild-type DegS
  Hill Constant (peptide activation): 1.6 ± 0.1
[3]; 200 μM RseA
  Hill Constant (peptide activation): 1.3 ± 0.1
[3]; [11]
  RseA cleavage relative to wild-type DegS: about three-fold faster
[4]
  L0, equilibrium constant T/R of unliganded enzyme: 15000
  KTP/KRP: 6.1
  kr, rate constant for cleavage of RseA by substrate-bound R-state subunits: 3.3 s⁻¹
[5]; RseA, not peptide, binding
  KRS, dissociation constant of RseA substrate for R-state subunit: 150 µM
  KTS, dissociation constant of RseA substrate for T-state subunit: 505 µM
[5]; enzyme parameter, peptide-independent
  L0, equilibrium constant T/R of unliganded enzyme: 180
[5]; peptide preference for relaxed state
  KTP/KRP: 1.9
[5]; same value for all enzymes and peptides
  kr, rate constant for cleavage of RseA by substrate-bound R-state subunits: 3.3 s⁻¹
[6]
  KRS, dissociation constant of RseA substrate for R-state subunit: 150 µM
  KTS, dissociation constant of RseA substrate for T-state subunit: 505 µM
  L0, equilibrium constant T/R of unliganded enzyme: 350
  KTP/KRP: 2.8
  kr, rate constant for cleavage of RseA by substrate-bound R-state subunits: 3.3 s⁻¹

## EDGEDGDYYF [EDGEDGDYYF]
[2]
  Hill Constant (peptide activation): 1.3 ± 0.1
[7]
  rate of rhodamine-FP modification in presence of peptide (order): slower still
[1]; wild-type DegS
  Hill Constant (peptide activation): 1.3 ± 0.1
[6]
  KRS, dissociation constant of RseA substrate for R-state subunit: 150 µM
  KTS, dissociation constant of RseA substrate for T-state subunit: 505 µM
  L0, equilibrium constant T/R of unliganded enzyme: 350
  KTP/KRP: 2.1
  kr, rate constant for cleavage of RseA by substrate-bound R-state subunits: 3.3 s⁻¹

## KRRKGKVYYF [KRRKGKVYYF]
[7]
  rate of rhodamine-FP modification in presence of peptide (order): slowest
[1]
  EC50: ≤ 1000 nM
[1]; wild-type DegS
  Hill Constant (peptide activation): ~1.2 ^a
[1]; wild-type DegS, among tested peptides
  apparent affinity (in words): highest apparent affinity
[1]; wild-type DegS, saturating peptide
  maximal activation (in words): lowest maximal activation
[4]
  L0, equilibrium constant T/R of unliganded enzyme: 15000
  KTP/KRP: 3.3
  kr, rate constant for cleavage of RseA by substrate-bound R-state subunits: 3.3 s⁻¹
[4]; saturating peptide and saturating RseA substrate, MWC model
  DegS molecules in active conformation: 9%

## YYF tripeptide
[8]
  KRP (dissociation constant for an R-state subunit): 1.24 µM
  KTP (dissociation constant for a T-state subunit): 3.76 µM

## DNRDGNVYYF [OMP peptide DNRDGNVYYF]
[9]
  KRP (dissociation constant for an R-state subunit): 0.07 µM
  KTP (dissociation constant for a T-state subunit): 0.14 µM
[10]
  KRP (dissociation constant for an R-state subunit): 0.06 µM
  KTP (dissociation constant for a T-state subunit): 0.2 µM

## DNRDGNVYQF [OMP peptide DNRDGNVYQF]
[9]
  KRP (dissociation constant for an R-state subunit): 1.64 µM
  KTP (dissociation constant for a T-state subunit): 3.19 µM
[10]
  KRP (dissociation constant for an R-state subunit): 1.09 µM
  KTP (dissociation constant for a T-state subunit): 2.98 µM

## EDGEDGDYYF [OMP peptide EDGEDGDYYF]
[10]
  KRP (dissociation constant for an R-state subunit): 4.02 µM
  KTP (dissociation constant for a T-state subunit): 8.5 µM
